These results are taken from article PMC12175177 (Frontiers in Pharmacology, 2025).

Each structure is given as a SMILES string.

The experiment relates to SARS-CoV-2 A2.5 variant. Description: Pre- and post-exposure assay, A2.5 variant in Vero E6 cells. Type of experiment: cell-based.

For the compound `CCN(CC)CCCC(C)Nc1ccnc2cc(Cl)ccc12` (stereo not shown) [Chloroquine diphosphate (CQ), Chloroquine diphosphate], the “antiviral effect, treatment 1 hour post-infection, A2.5” value is recorded as “dose-dependent antiviral effect” and the “effect on viral replication, treatment 1 hour pre-infection, A2.5” value is “did not influence the viral replication”.
In the same order, the values of `COc1cc(NC(C)CCCN)c2ncccc2c1` (stereo not shown) [Primaquine Phosphate (PQ), Primaquine Phosphate] are “dose-dependent antiviral effect” and “did not influence the viral replication”.
